{"source": "patent US20090226494A1", "about": "“PATHOGEN - CONTROLLING PRODUCTS” (priority 2005, published 2009)", "key": {"[1]": {"system": "A431 human skin cell line", "experiment": "Hand gel cytotoxicity, SRB assay", "type": "cell-based", "conditions": "10% concentration (highest), 24 hours", "method": "Methods: The human squamous epithelial cell line A431 was cultured in RPMI 1640 medium supplemented with 10% FCS, 2 g/L sodium bicarbonate and 2 mM L-glutamine (complete medium), in 75 cm^2 tissue culture flasks in a humidified incubator at 37° C. with a 5% CO2 in air atmosphere. For the cytotoxicity experiments, A431 cells were plated into the wells of flat-bottom 96 well plates at 5×10^4 cells per well in 200 μl of complete medium and allowed to grow to confluence. On the day of the experiment the depleted culture medium was aspirated and replaced with 100 μl of fresh complete medium. Samples of the hand gels were diluted in complete medium to double the concentrations shown in the Figure and 100 μl of each samples was added to the cells which were then cultured for a further 24 hours. After microscopic examination, the cells were fixed and stained to quantitatively determine cytotoxicity as described below. The sulforhodamine B (SRB) cytotoxicity assay was developed and validated at the National Cancer Institute. […] After washing twice with tap water the remaining stain was dissolved in 10 mM Tris base and the optical density (O.D.) of the wells was measured on a Dynatech Multiplate ELISA reader at 540 nm. The percent cell survival was calculated by dividing the test O.D. by control O.D. and multiplying by 100."}, "ACCB": {"system": "ACCB", "conditions": "40 and 150 ppm"}, "HT-29 cells": {"system": "HT-29 cells", "experiment": "Sulforhodamine (SRB) cytotoxicity assay and microscopy", "type": "cell-based, human", "conditions": "24 and 48 hours", "source_text": "(§1) The three copper-containing antimicrobial solutions—CuPC33, CuAL42 and CuWB50—were provided and each contained 30.43 g/L of copper ion. […] Two human cell lines were used for this example: HT-29, an intestinal epithelial cell line, and U937, a monocytic lymphoma. […] After examination by microscopy the cells were then fixed and stained to quantitatively determine cytotoxicity using a sulforhodamine (SRB) cytotoxicity assay, developed and validated at the National Cancer Institute. […] All test cultures were in triplicate."}, "U937 cells": {"system": "U937 cells", "experiment": "Sulforhodamine (SRB) cytotoxicity assay and microscopy", "type": "cell-based, human", "conditions": "24 and 48 hours", "source_text": "as §1"}, "MRSA": {"system": "MRSA", "experiment": "Time kill curves in RPMI-1460 medium", "type": "cell-based, Staphylococcus aureus", "conditions": "20 and 150 ppm"}}}
{"smiles": "CCO", "note": "[ethanol]", "values": [{"measurement": "reduction of cell survival / cells killed", "setting": "[1]", "result": "around 50%"}]}
{"smiles": "O=S(=O)([O-])[O-].[Cu+2]", "note": "[copper sulphate]", "values": [{"measurement": "activity in time kill curves", "setting": "ACCB", "result": "little initial activity but the bacteria recovered"}, {"measurement": "cytotoxicity", "setting": "HT-29 cells; 1-100 ppm, 5% or 25% FCS", "result": "not significantly cytotoxic"}, {"measurement": "cytotoxicity", "setting": "HT-29 cells; 1000 ppm", "result": "very toxic"}, {"measurement": "cytotoxicity", "setting": "U937 cells; 1-100 ppm, 5% or 25% FCS", "result": "not significantly cytotoxic"}, {"measurement": "cytotoxicity", "setting": "U937 cells; 1000 ppm", "result": "very toxic"}, {"measurement": "activity in time kill curves", "setting": "MRSA", "result": "some activity but the bacteria recovered"}]}
